Molecular target: T1, EGFR L858R-T790M (Homo sapiens, UniProt P00533, L858R/T790M)
T1 construct: NCI-H1975 (harboring EGFR heterozygous L858R-T790M mutations); host or cells: NCI-H1975
Test: EGFR degradation, Total EGFR (L858R-specific) HTRF, NCI-H1975
Type: cell-based
Settings: Table 9B; NCI-H1975 cells, 6 hours, Total EGFR HTRF; read-out: H1975 EGFR DC50
From the text: NCI-H1975 (harboring EGFR heterozygous L858R-T790M mutations) and NCI-H3255 (harboring EGFR heterozygous L858R mutation) were purchased from ATCC and NCI, respectively. NCI-H1975+CS (harboring EGFR heterozygous L858R-T790M-C797S mutations) was generated using CRISPR technology to introduce the additional C797S mutation by Horizon Discovery. A431 (harboring EGFR wildtype) was purchased from ATCC. RPMI 1640 no-phenol red medium and fetal bovine serum (FBS) were purchased from Gibco (Grand Island, NY, USA). Cell culture flasks and 384-well microplates were acquired from VWR (Radnor, PA, USA). Phosphorylated (pY1068) EGFR and Total EGFR (using L858R-specific detection antibody and pan-EGFR antibody for EGFR mutant cell lines and EGFR wild-type cell lines, respectively) HTRF assay kits were purchased from Cisbio (Bedford, MA, USA).
Degradation of EGFR protein containing L858R mutation or wild-type was determined based on quantification of FRET signal using a Total EGFR (L858R-specific or pan-EGFR detecting) HTRF assay kit. Phospho-EGFR (pEGFR) inhibition was determined based on quantification of FRET signal using a pY1068 EGFR HTRF assay kit. In separate assay plates, test compounds were added to the 384-well plate from a top concentration of 10 μM with 11 points, half log titration in duplicates. For each assay, 12.5 uL of cells suspended in assay media (RPMI 1640 no-phenol red medium+10% FBS) at cell densities indicated for each cell line in Table 8 below were dispensed using a multi-channel pipette to 384-well low volume white HTRF microplates containing a duplicate concentration range of test compounds and DMSO controls. The plates were kept at 37° C. with 5% CO2 for 6 hours and then incubated with either phospho EGFR or Total EGFR HTRF detection antibodies according to the cell line and EGFR mutant being assayed. Cells treated in the absence of the test compound were the negative control. Positive control was set by wells containing all reagents but no cells. FRET signal was acquired on EnVision™ Multilabel Reader (PerkinElmer, Santa Clara, CA, USA). Compound concentration that achieves 50% degradation and inhibition was reported as DC50 and IC50, respectively.

T1 sequence (P00533 25-1210 T790M/L858R): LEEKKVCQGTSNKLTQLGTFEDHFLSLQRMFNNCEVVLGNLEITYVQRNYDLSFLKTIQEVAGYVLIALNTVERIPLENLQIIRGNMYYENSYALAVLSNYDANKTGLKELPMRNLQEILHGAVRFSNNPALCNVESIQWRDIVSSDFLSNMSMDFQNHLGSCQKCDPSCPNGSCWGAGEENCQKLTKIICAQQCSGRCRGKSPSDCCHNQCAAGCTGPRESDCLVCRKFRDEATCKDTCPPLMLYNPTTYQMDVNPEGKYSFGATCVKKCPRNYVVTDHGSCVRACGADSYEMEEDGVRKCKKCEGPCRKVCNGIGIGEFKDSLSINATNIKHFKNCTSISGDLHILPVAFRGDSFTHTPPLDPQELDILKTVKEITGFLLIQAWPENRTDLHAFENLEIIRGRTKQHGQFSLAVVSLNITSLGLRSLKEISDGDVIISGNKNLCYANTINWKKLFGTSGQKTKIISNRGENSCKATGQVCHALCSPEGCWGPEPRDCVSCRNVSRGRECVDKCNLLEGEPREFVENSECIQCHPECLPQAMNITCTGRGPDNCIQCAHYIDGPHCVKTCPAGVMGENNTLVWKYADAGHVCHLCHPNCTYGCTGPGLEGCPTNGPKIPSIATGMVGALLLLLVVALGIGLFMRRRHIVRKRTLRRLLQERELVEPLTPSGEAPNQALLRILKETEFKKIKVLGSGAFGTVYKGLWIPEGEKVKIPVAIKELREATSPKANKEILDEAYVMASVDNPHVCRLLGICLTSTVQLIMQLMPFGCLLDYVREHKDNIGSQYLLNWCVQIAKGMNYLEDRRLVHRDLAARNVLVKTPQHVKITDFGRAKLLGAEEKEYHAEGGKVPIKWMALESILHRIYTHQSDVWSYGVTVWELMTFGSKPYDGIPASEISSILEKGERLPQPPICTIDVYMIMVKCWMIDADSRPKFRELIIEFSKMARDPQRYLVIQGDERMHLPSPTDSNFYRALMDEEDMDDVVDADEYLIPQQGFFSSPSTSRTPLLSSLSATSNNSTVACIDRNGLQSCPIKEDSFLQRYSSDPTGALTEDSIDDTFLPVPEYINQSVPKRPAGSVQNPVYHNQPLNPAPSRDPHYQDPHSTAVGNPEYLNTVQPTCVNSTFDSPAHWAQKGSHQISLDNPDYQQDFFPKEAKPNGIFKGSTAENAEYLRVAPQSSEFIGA

| Compound | DC50 [nM] |
| --- | --- |
| Cn1nc(N2CCC(=O)NC2=O)c2cc(F)c(C3CCN(CC(=O)N4CC5(C4)CN(c4ccc(-c6cc(F)c7c(c6)C(=O)N(C(C(=O)Nc6nccs6)c6ncn8c6CCC8)C7)cc4)C5)CC3(F)F)cc21 (single isomer, unassigned; isomer 1) [Compound 129, 2-(6,7-dihydro-5H-pyrrolo[1,2-c]imidazol-1-yl)-2-[6-[4-[2-[2-[4-[3-(2,4-dioxohexahydropyrimidin-1-yl)-5-fluoro-1-methyl-indazol-6-yl]-3,3-difluoro-1-piperidyl]acetyl]-2,6-diazaspiro[3.3]heptan-6-yl]phenyl]-4-fluoro-1-oxo-isoindolin-2-yl]-N-thiazol-2-yl-acetamide, isomer 1] | < 50 |
| O=C1CCC(Nc2cc(F)c(N3CCC(O)(CC(=O)N4CC5(CCN(c6ccc(-c7cc(F)c8c(c7)C(=O)N(C(C(=O)Nc7nccs7)c7ncn9c7CCC9)C8)cc6)CC5)C4)CC3)c(F)c2)C(=O)N1 (single isomer, unassigned; isomer 1) [Compound 134, 2-(6,7-dihydro-5H-pyrrolo[1,2-c]imidazol-1-yl)-2-[6-[4-[2-[2-[1-[4-[[2,6-dioxo-3-piperidyl]amino]-2,6-difluoro-phenyl]-4-hydroxy-4-piperidyl]acetyl]-2,7-diazaspiro[3.5]nonan-7-yl]phenyl]-4-fluoro-1-oxo-isoindolin-2-yl]-N-thiazol-2-yl-acetamide, isomer 1] | < 50 |
| O=C1CCC(Nc2cc(F)c(N3CCC(O)(CC(=O)N4CCC5(CC4)CN(c4ccc(-c6cc(F)c7c(c6)C(=O)N(C(C(=O)Nc6nccs6)c6ncn8c6CCC8)C7)cc4)C5)CC3)c(F)c2)C(=O)N1 (single isomer, unassigned; isomer 1) [Compound 137, 2-(6,7-dihydro-5H-pyrrolo[1,2-c]imidazol-1-yl)-2-[6-[4-[7-[2-[1-[4-[2,6-dioxo-3-piperidyl]amino]-2,6-difluoro-phenyl]-4-hydroxy-4-piperidyl]acetyl]-2,7-diazaspiro[3.5]nonan-2-yl]phenyl]-4-fluoro-1-oxo-isoindolin-2-yl]-N-thiazol-2-yl-acetamide, isomer 1] | 50 to 150 |
| O=C1CCC(Nc2ccc(N3CCC(O)(CC(=O)N4CCC5(CC4)CN(c4ccc(-c6cc(F)c7c(c6)C(=O)N(C(C(=O)Nc6nccs6)c6ncn8c6CCC8)C7)cc4)C5)CC3)c(Cl)c2)C(=O)N1 (single isomer, unassigned; isomer 1) [Compound 138, 2-[6-[4-[7-[2-[1-[2-chloro-4-[[2,6-dioxo-3-piperidyl]amino]phenyl]-4-hydroxy-4-piperidyl]acetyl]-2,7-diazaspiro[3.5]nonan-2-yl]phenyl]-4-fluoro-1-oxo-isoindolin-2-yl]-2-(6,7-dihydro-5H-pyrrolo[1,2-c]imidazol-1-yl)-N-thiazol-2-yl-acetamide, isomer 1] | < 50 |
| O=C1CCC(Nc2cnc(N3CCC(O)(CC(=O)N4CC5(C4)CN(c4ccc(-c6cc(F)c7c(c6)C(=O)N(C(C(=O)Nc6nccs6)c6ncn8c6CCC8)C7)cc4)C5)CC3)c(F)c2)C(=O)N1 (single isomer, unassigned; isomer 1) [Compound 139, 2-(6,7-dihydro-5H-pyrrolo[1,2-c]imidazol-1-yl)-2-[6-[4-[2-[2-[1-[5-[[2,6-dioxo-3-piperidyl]amino]-3-fluoro-2-pyridyl]-4-hydroxy-4-piperidyl]acetyl]-2,6-diazaspiro[3.3]heptan-6-yl]phenyl]-4-fluoro-1-oxo-isoindolin-2-yl]-N-thiazol-2-yl-acetamide, isomer 1] | < 50 |
